The source of these data is the METLIN SMRT retention time set (Domingo-Almenara et al. 2019).

Molecules are shown by their SMILES.

A short description of the data set: gradient 5% acetonitrile 3 min, to 50% in 2 min, to 85% in 15 min, held 3 min, 100 µL/min. The settings on record: column: Zorbax Extend-C18 2.1 x 50 mm; eluents: water / acetonitrile, 0.1% formic acid. A digest of the protocol: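 Each retention time is based on an adduct peak selected computationally and verified by manual inspection. Measurements used HPLC–quadrupole time-of-flight mass spectrometry in positive and negative ionization mode on mixtures of ~100 pure standards. Chromatography ran on a Zorbax Extend-C18 column (2.1 × 50 mm, 1.8 μm) at 100 μL/min with water and acetonitrile, each containing 0.1% formic acid, and dead and dwell volumes of 40 μL and 900 μL.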
In the case of `Cc1cc(-c2nnc(C3CC3)o2)c(C)n1CC(=O)NCc1ccccc1Cl`, the RP-LC retention time worked out at 769 s.

On to `COC(=O)c1cccc(NC(=O)c2nc(C)oc2C)c1`, for which the RP-LC retention time was determined as 840 s.

`Cc1ccc(NC(=O)N(C)CCc2noc(COc3ccccc3F)n2)c(C)c1` gave an RP-LC retention time of 922 s.

With `Cc1ccc(NC(=O)C2CCCN2S(=O)(=O)c2ccc3c(c2)CCCC(=O)N3)cc1C` (stereo not drawn), the RP-LC retention time was 818 s.

Compound `CCOc1ccccc1CN1C[C@@H]2C(=O)N(C)C(=O)[C@@H]2C1` yielded an RP-LC retention time of 595 s.

As for `Cc1ccc(-c2nnc(-c3nc(N4CCCCC4C)c4ccccc4n3)o2)cc1` (stereo not drawn), the RP-LC retention time is 1260 s.

With `CCCNC(=O)C1CCN(S(=O)(=O)c2cc(C(=O)N3CCCC3)n(C)c2)CC1`, the RP-LC retention time worked out at 648 s.

Compound `Cc1nnc(C(=O)Nc2cccc(C(=O)NCCc3c[nH]c4ccc(Cl)cc34)c2)s1` gave an RP-LC retention time of 847 s.

Consider `CCOc1ccc(NC(=O)Nc2nccn(-c3ccc(F)cc3)c2=O)cc1`, for which the RP-LC retention time turned out to be 939 s.

`COc1ccccc1N1CCN(c2cc(SCC(=O)NCCCc3ccccc3)ncn2)CC1` had an RP-LC retention time of 959 s.

`CCOC(=O)c1ccccc1NC(=O)Cn1nc2c(N3CCSCC3)nccn2c1=O`: the RP-LC retention time stood at 1010 s.

`CC(C)C(=O)Nc1ccc(CCc2nc3ccc(C(=O)NCc4ccco4)cc3[nH]2)cc1` gave an RP-LC retention time of 635 s.

For the compound `O=C(NC1CC1)c1ccc(OCC2CCCN2C(=O)C2CCC2)cc1` (stereo not drawn), the RP-LC retention time came out at 741 s.

For `O=C(c1nc2ccccn2c1-c1ccsc1)N1CCCCC1`, the RP-LC retention time was determined as 665 s.

Take `CCOC(=O)C1CCN(c2c(C#N)cnc3ccc(Cl)cc23)CC1`: the RP-LC retention time was 935 s.

As to `CCN1C(=O)c2cccnc2Sc2cc(NC(=O)c3cccs3)ccc21`, the RP-LC retention time came to 796 s.

The compound `CCNc1cc(N2CCC(CCC(=O)NCc3ccc(F)c(Cl)c3)CC2)ncn1` displayed an RP-LC retention time of 682 s.

Compound `CCc1c(C)nc2nc(-c3ccccc3)nn2c1Nc1cccc(OC)c1` registered an RP-LC retention time of 989 s.

`CCCN1C(=O)COc2ccc(-c3noc(CNC(=O)c4ccc(C)cc4)n3)cc21` had an RP-LC retention time of 930 s.

`CCOC(=O)CC(=O)Nc1cc2c(cc1N1CCCC1)n(C)c(=O)n2C`: the RP-LC retention time amounted to 587 s.

Regarding `CC(C)(Oc1ccc(Cl)cc1)C(=O)Nc1c(-c2ccccc2)nc2ccccn12`, the RP-LC retention time came out at 783 s.

Turning to `Cc1sc2cc(C(=O)N3CCN(c4ccccc4F)CC3)[nH]c2c1CN1CCOCC1`, the RP-LC retention time was determined as 704 s.

Take `CCOc1ccc(-c2noc(N3CCC(C(=O)N4CCN(CC)CC4)CC3)n2)cc1OC`: the RP-LC retention time came out at 630 s.

In turn, `Cc1ccn2c(NC(=O)COc3ccc(Cl)cc3Cl)c(-c3ccccc3)nc2c1` gave an RP-LC retention time of 799 s.

Take `COc1ccc(OC)c(NC(=O)Cn2nc3c4cc(Cl)ccc4ncn3c2=O)c1`: the RP-LC retention time was found to be 740 s.

For the compound `O=C(Nc1cccnc1)C1CCCN(c2nnc3ccc(Cl)cn23)C1` (stereo not drawn), the RP-LC retention time was found to be 567 s.

The compound `Cc1ccc(C2=NC3(CCN(C(=O)c4ccc5cc[nH]c5c4)CC3)ON2)cc1` returned an RP-LC retention time of 755 s.

`COCC(=O)N(C1CCOCC1)C1CCN(S(=O)(=O)c2ccccc2)CC1` gave an RP-LC retention time of 727 s.

On to `CCNc1cc(N2CCCC(CCC(=O)N3CCC(C)CC3)C2)ncn1` (stereo not drawn), for which the RP-LC retention time is 676 s.

Compound `Cn1c(SCCC(=O)O)nnc1-c1cccnc1` displayed an RP-LC retention time of 515 s.

For `Cc1noc(-c2ccc(OC3CN(C(=O)C(C)Oc4ccccc4)C3)cc2)n1` (stereo not drawn), the RP-LC retention time was 899 s.

`CC(C)c1cc(C(=O)Nc2cccc(C(F)(F)F)c2)nn1C1CCS(=O)(=O)C1` (stereo not drawn) displayed an RP-LC retention time of 1000 s.

Consider `CS(=O)(=O)N(C1CCOCC1)C1CN(C(=O)Nc2ccccc2F)C1`, for which the RP-LC retention time is 670 s.

`COCCN1C(=O)CCc2cc(NS(=O)(=O)c3ccccc3)ccc21` gave an RP-LC retention time of 716 s.

For the compound `C[C@H](Nc1ncnc2nc[nH]c12)c1cc2cccc(Cl)c2c(=O)n1-c1ccccc1`, the RP-LC retention time was determined as 697 s.

On to `COc1ccc(-c2cn3c(CC(=O)NCc4ccc(C)o4)csc3n2)cc1OC`, for which the RP-LC retention time worked out at 686 s.

As for `Cn1c(C2CCN(C(=O)c3ccc(C(F)(F)F)s3)C2)nc2cccnc21` (stereo not drawn), the RP-LC retention time was 716 s.

On to `CCC(C)NC(=O)N1CCN(Cc2nc3cccnc3n2-c2cc(C)cc(C)c2)CC1` (stereo not drawn), for which the RP-LC retention time amounted to 672 s.

As for `COc1ccc(CN2C[C@@H](CO)[C@H](c3ccncc3)C2)cc1C`, the RP-LC retention time was found to be 542 s.

Turning to `CN1C(=O)[C@H]2CN(Cc3ccc(OC(F)(F)F)cc3)C[C@H]2C1=O`, the RP-LC retention time turned out to be 666 s.

Turning to `CCSc1nnc(NC(=O)CSc2nc3ccccc3o2)s1`, the RP-LC retention time was 832 s.

`Cn1c(=O)c(-c2ccc(C(=O)NCCCN3CCCC3)cc2)nc2ccccc21` had an RP-LC retention time of 616 s.

`O=C(CCC(=O)N1CCN(c2nc3cccnc3s2)CC1)N1CCCC1` returned an RP-LC retention time of 612 s.

As to `c1cc(CN2CCN(c3cnn4c(C5CC5)nnc4c3)CC2)cs1`, the RP-LC retention time stood at 558 s.

The compound `CC(C)[C@@H](CN1CC[C@@](C)(c2cccc(O)c2)[C@@H](C)C1)NC(=O)[C@H]1Cc2ccc(O)cc2CN1` yielded an RP-LC retention time of 555 s.

As for `CC1(C(=O)NCc2ccccc2)CN(S(C)(=O)=O)CC(=O)N1Cc1ccc(Cl)cc1` (stereo not drawn), the RP-LC retention time amounted to 858 s.

`COc1cccc(Cn2nc3n(Cc4ccc(C)cc4)c(=O)c4nn(C)cc4n3c2=O)c1` registered an RP-LC retention time of 935 s.

Take `CCn1c(CCNC(=O)c2cc(Cl)ccc2F)nc2cccnc21`: the RP-LC retention time came out at 661 s.

Consider `CCN(CC)c1ccc(-c2noc(CN3CCN(c4ncccn4)CC3)n2)cn1`, for which the RP-LC retention time is 655 s.

For `CCOc1ccc(-c2ccc(=O)n(Cc3nc(-c4ccc(C)c(C)c4)no3)n2)cc1`, the RP-LC retention time was 576 s.

`Cc1c(C(=O)C(=O)NCC2COc3ccccc3O2)c2ccccc2n1C` (stereo not drawn) displayed an RP-LC retention time of 777 s.

Regarding `CC(C)NC(=O)C1CCCN(c2nc3ncn(CC(=O)Nc4ccc(Cl)cc4)c(=O)c3s2)C1` (stereo not drawn), the RP-LC retention time was 719 s.

`COc1ccc(N2CCN(C(=O)c3cc4c(s3)CCN(C(C)=O)C4)CC2)cc1` showed an RP-LC retention time of 674 s.

`O=C(CCc1nc2ccccc2s1)N1CCC(c2noc(-c3ccncc3)n2)C1` (stereo not drawn) returned an RP-LC retention time of 760 s.

`O=C(NCCc1c[nH]c2ccc(Cl)cc12)C1CCCN(c2nc3cccnc3s2)C1` (stereo not drawn) gave an RP-LC retention time of 858 s.

For `Cc1nc2cc(N3CCC(C(=O)Nc4ccc5c(c4)OCCO5)CC3)cnc2nc1C`, the RP-LC retention time came to 697 s.

Compound `Cc1nnc2ccc(-c3noc(CCc4ccccc4)n3)cn12` yielded an RP-LC retention time of 1140 s.

Compound `O[C@H](CNC[C@@H](O)[C@H]1CCc2cc(F)ccc2O1)[C@@H]1CCc2cc(F)ccc2O1` had an RP-LC retention time of 791 s.

Consider `O=C(Cn1ccc2ccc(N3CCOCC3)nc21)N1CCN(c2ccc(F)cc2)CC1`, for which the RP-LC retention time amounted to 898 s.

Compound `O=C(Nc1cccc(C(F)(F)F)c1)C1CCN(c2cc(-n3ccnc3)ncn2)CC1` registered an RP-LC retention time of 625 s.

Consider `O=C(Nc1ccc2c(c1)OCO2)C(=O)c1c[nH]c2ccccc12`, for which the RP-LC retention time was determined as 890 s.

The compound `CCCOc1ccc(CN2C[C@@H](CO)[C@H](c3ccncc3)C2)cc1OC` came in with an RP-LC retention time of 557 s.

`CCNC(=O)C1CCCN(c2nc3ncn(CC(=O)Nc4ccc(Cl)cc4F)c(=O)c3s2)C1` (stereo not drawn) had an RP-LC retention time of 709 s.

`O=C(Cc1nnc(-c2ccc3ncccc3c2)o1)NCc1ccc(F)c(Cl)c1`: the RP-LC retention time stood at 733 s.

In turn, `O=C(CN1C(=O)COc2ccc(C(=O)N3CCCC3)cc21)NCc1ccc2c(c1)OCO2` returned an RP-LC retention time of 682 s.

The compound `Cc1ccc(NC(=O)Cn2c(C(C)C)nc3c(c2=O)CCN(Cc2ccccc2)C3)c(C)c1` returned an RP-LC retention time of 705 s.

For the compound `COc1ccc(S(=O)(=O)N2CCCC(C(=O)NCCO)C2)cc1C` (stereo not drawn), the RP-LC retention time amounted to 669 s.

Compound `Cc1cc(NC(=O)C(C)(C)C)nn1Cc1ccccc1` came in with an RP-LC retention time of 879 s.

As to `O=C(C1CCCN(c2nccnc2Oc2ccccc2)C1)N1CCN(c2ccccc2Cl)CC1` (stereo not drawn), the RP-LC retention time was 1240 s.

For the compound `O=S(=O)(c1ccc(-c2nnc(C3CCC3)o2)o1)N1CCOCC1`, the RP-LC retention time is 780 s.

On to `CCn1cc(-c2nc(C(=O)Nc3cc(F)ccc3C)cs2)c2cccnc21`, for which the RP-LC retention time stood at 899 s.

Regarding `Cc1ccc(C)c(N2CCN(C(=O)c3ccc4c(c3)NC(=O)C3CCCCN43)CC2)c1` (stereo not drawn), the RP-LC retention time came out at 1050 s.

`CCCn1c(=O)c2cc(C(=O)N3CCN(Cc4ccccc4)CC3)nn2c2ccccc21` showed an RP-LC retention time of 590 s.

Compound `CN1c2ccccc2C(=O)NC12CCN(C(=O)Nc1ccccc1F)CC2` registered an RP-LC retention time of 695 s.

`COc1cc(CNC(=O)CN2C(=O)C(C)(C)c3cc(C)ccc32)cc(OC)c1OC`: the RP-LC retention time is 794 s.

`CC1Cn2cc(C(=O)NCCN3CCN(C)CC3)c(=O)c3c(Cl)ccc(c32)O1` (stereo not drawn) yielded an RP-LC retention time of 590 s.

`CNC(=O)c1cc(C)nc2ccc(F)cc12` showed an RP-LC retention time of 580 s.

Consider `O=C(Cn1c(=O)cc(C(=O)N2CCCC2)c2ccccc21)Nc1cccc(Br)c1`, for which the RP-LC retention time was 780 s.
